According to PubChem BioAssay (NCI):
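Cells were grown in 96-well plates and exposed to each compound for 48 hours at five concentrations; endpoints were interpolated linearly between bracketing concentrations, or set to the highest concentration if not reached. Here, GI50 denotes the concentration required for 50% inhibition of growth. TGI is the concentration that stops growth completely.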

How the values were obtained:
Experiment in all cases: NCI-60 cell line screen, 48 h
[1] = test system: RXF 393 renal
[2] = test system: HL-60(TB) leukemia
[3] = test system: SR leukemia
[4] = test system: SK-OV-3 ovarian
[5] = test system: HCT-15 colon
[6] = test system: HT29 colon
[7] = test system: COLO 205 colon
[8] = test system: OVCAR-4 ovarian
[9] = test system: SK-MEL-5 melanoma
[10] = test system: DU-145 prostate

`O=C(CCCSc1nc(-c2ccccc2)cc(-c2ccccc2)n1)NO` showed a GI50 [1] of 0.525 µM, a TGI [1] of 3.05 µM and a GI50 [2] of 2.48 µM. For the same molecule, the TGI [2] was 6.39 µM, the GI50 [3] was 0.38 µM and the TGI [3] was 20.5 µM. The GI50 [4] was 1.94 µM, the TGI [4] was 5.57 µM and the GI50 [5] was 0.408 µM. For the same molecule, the TGI [5] was 11.8 µM, the GI50 [6] was 2.46 µM and the TGI [6] was 12.2 µM. For the same molecule, the GI50 [7] was 1.86 µM, the TGI [7] was 5.1 µM and the GI50 [8] was 1.67 µM. It also gave a TGI [8] of 14.9 µM, a GI50 [9] of 1.41 µM and a TGI [9] of 3.17 µM. For the same molecule, the GI50 [10] was 1.83 µM and the TGI [10] was 11.4 µM.
`Nc1ccc(C2=NNC(=O)Cc3cc4c(cc32)OCCO4)cc1Cl` showed a GI50 [1] of 5.27 µM, a TGI [1] of 19.3 µM and a GI50 [2] of 1.72 µM. The TGI [2] was 12.3 µM, the GI50 [3] was 1.37 µM and the TGI [3] was > 50 µM. The GI50 [4] was 8.1 µM, the TGI [4] was > 50 µM and the GI50 [5] was 2.49 µM. The TGI [5] was > 50 µM, the GI50 [6] was 2.11 µM and the TGI [6] was > 50 µM. It also gave a GI50 [7] of 2.63 µM, a TGI [7] of 17.5 µM and a GI50 [8] of 35.3 µM. For the same molecule, the TGI [8] was > 50 µM, the GI50 [9] was 2.28 µM and the TGI [9] was > 50 µM. For the same molecule, the GI50 [10] was 11.4 µM and the TGI [10] was > 50 µM.
With `COc1cc(/C(C#N)=C/c2nc3c(N4CCOCC4)nc(Cl)nc3n2C)cc(OC)c1OC` the GI50 [2] was < 0.01 µM, the TGI [2] was < 0.01 µM and the GI50 [3] was < 0.01 µM. For the same molecule, the GI50 [4] was < 0.01 µM, the TGI [4] was 7.27 µM and the GI50 [5] was < 0.01 µM. The TGI [5] was 6.94 µM, the GI50 [6] was < 0.01 µM and the TGI [6] was 3.42 µM. The GI50 [7] was 0.0124 µM, the TGI [7] was 0.0335 µM and the GI50 [8] was < 0.01 µM. For the same molecule, the TGI [8] was 41.1 µM, the GI50 [9] was < 0.01 µM and the TGI [9] was 0.0268 µM. The GI50 [10] was < 0.01 µM and the TGI [10] was > 94.3 µM.
For `COc1ccc(CCN=C2NC(=O)/C(=C/c3ccc4ncccc4c3)S2)cc1`, the GI50 [1] was > 25 µM, the TGI [1] was > 25 µM and the GI50 [3] was 12.6 µM. The TGI [3] was > 25 µM, the GI50 [4] was > 25 µM and the TGI [4] was > 25 µM. The GI50 [5] was > 25 µM, the TGI [5] was > 25 µM and the GI50 [6] was > 25 µM. For the same molecule, the TGI [6] was > 25 µM, the GI50 [7] was > 25 µM and the TGI [7] was > 25 µM. For the same molecule, the GI50 [8] was > 25 µM, the TGI [8] was > 25 µM and the GI50 [9] was > 25 µM. The TGI [9] was > 25 µM, the GI50 [10] was > 25 µM and the TGI [10] was > 25 µM.
For `Cc1csc(-c2nnc(Nc3ccc(Oc4ncccc4-c4ccnc(N)n4)cc3)c3ccccc23)c1`, the GI50 [1] was 1.51 µM, the TGI [1] was > 100 µM and the GI50 [2] was 2.16 µM. For the same molecule, the TGI [2] was > 100 µM, the GI50 [3] was < 0.01 µM and the TGI [3] was > 100 µM. The GI50 [4] was > 100 µM, the TGI [4] was > 100 µM and the GI50 [5] was 1.78 µM. The TGI [5] was > 100 µM, the GI50 [6] was 0.558 µM and the TGI [6] was > 100 µM. For the same molecule, the GI50 [8] was 6.59 µM, the TGI [8] was > 100 µM and the GI50 [9] was 71.5 µM. For the same molecule, the TGI [9] was > 100 µM, the GI50 [10] was 4.61 µM and the TGI [10] was > 100 µM.
With `COc1cc(-c2ccc3cc(OC)c(OC)c(OC)c3c2)cc(OC)c1OC` the GI50 [1] was 5.91 µM, the TGI [1] was 44 µM and the GI50 [2] was > 100 µM. For the same molecule, the TGI [2] was > 100 µM, the GI50 [3] was 5.19 µM and the TGI [3] was > 100 µM. For the same molecule, the GI50 [4] was 34.4 µM, the TGI [4] was > 100 µM and the GI50 [5] was 6.03 µM. For the same molecule, the TGI [5] was > 100 µM, the GI50 [7] was > 100 µM and the TGI [7] was > 100 µM. The GI50 [8] was > 100 µM, the TGI [8] was > 100 µM and the GI50 [10] was > 100 µM. The TGI [10] was > 100 µM.
